According to PMC7470102, “Synthesis, anticancer evaluation and molecular docking studies of new benzimidazole- 1,3,4-oxadiazole derivatives as human topoisomerase types I poison” (Journal of Enzyme Inhibition and Medicinal Chemistry, 2020):

What was measured:
[1] = tested on: HeLa (cervical cell line); test: MTT cytotoxicity assay, HeLa; type: cell-based; conditions: Homo sapiens, read-out: IC50 against HeLa
Description: (§1) The anticancer activity of compounds 5a–5o were screened according to the MTT assays. The MTT assays were performed as previously described[32]^,[33]. Anticancer activity of final compounds was assessed against five different cancer cell lines A549 (lung carcinoma cell line), HeLa (cervical cell line), MCF-7 (human breast adenocarcinoma cell line), HepG2 (human liver carcinoma cell line) and C6 (rat glioma cell line) cell lines as well as NIH3T3 (mouse embryo fibroblast cell line). Doxorubicin and Hoechst 33342 were used as the reference drugs in the MTT assays.
(§2) The benzimidazole-1,3,4-oxadiazole derivatives (5a-5o) were tested their cytotoxic effects in vitro using five cancer cell line A549 (lung carcinoma cell line), HeLa (cervical cell line), MCF-7 (human breast adenocarcinoma cell line), HepG2 (human liver carcinoma cell line) and C6 (rat glioma cell line) cell lines as well as NIH3T3 (mouse embryo fibroblast cell line). Doxorubicin and Hoechst 33342 were used for this study as a reference drugs.

[2] = tested on: C6 (rat glioma cell line); test: MTT cytotoxicity assay, C6; type: cell-based; conditions: Rattus norvegicus, read-out: IC50 against C6
Description: as §1, §2

[3] = tested on: NIH3T3 (mouse embryo fibroblast cell line); test: MTT cytotoxicity assay, NIH3T3 healthy cells; type: cell-based; conditions: Mus musculus, read-out: IC50 against NIH3T3
Description: The anticancer activity of compounds 5a–5o were screened according to the MTT assays. The MTT assays were performed as previously described[32]^,[33]. Anticancer activity of final compounds was assessed against five different cancer cell lines A549 (lung carcinoma cell line), HeLa (cervical cell line), MCF-7 (human breast adenocarcinoma cell line), HepG2 (human liver carcinoma cell line) and C6 (rat glioma cell line) cell lines as well as NIH3T3 (mouse embryo fibroblast cell line). Doxorubicin and Hoechst 33342 were used as the reference drugs in the MTT assays. It is crucial that an anticancer agent affects the cancer cell line but having minimal or no side-effect on healthy cells. For this purpose, the cytotoxic effects of the active compounds on the NIH3T3 cell line were investigated (Table 2).

[4] = tested on: C6 cell line; test: Flow cytometric analysis (Annexin V/PI), C6; type: cell-based, rat; conditions: at IC50 concentrations
Description: Death pathway of the carcinogenic cell lines was detected by Annexin V-FITC Apoptosis Detection Kit (BD, Pharmingen) as reported previously described. […] FCS Express software was used to display the percent of normal and apoptotic cells at different stages. […] The experiments were carried out in triplicates.
Annexin V/PI staining on tested cancer cells treated with the active compounds was performed to investigate induction of apoptosis. […] According to the MTT assay, compound 5n for A549 cell line; compounds 5a, 5d, 5e, 5o for MCF-7 cell line; compound 5k for C6 cell line; compound 5a for HepG2 cell line; compounds 5b, 5l and 5n for HeLa cell line were selected for the flow cytometric analysis. Furthermore, flow cytometry studies were performed for reference drug doxorubicin. Flow cytometric analysis diagrams of tested compounds and doxorubicin at IC50/2, IC50, and 2xIC50 concentrations on cancer cells were presented in Figures 7–11.

[5] = tested on: MCF-7 (human breast adenocarcinoma cell line); test: MTT cytotoxicity assay, MCF-7; type: cell-based; conditions: Homo sapiens, MCF7, MCF-7 cell line, read-out: IC50 against MCF-7
Description: as §1, §2

[6] = tested on: HepG2 (human liver carcinoma cell line); test: MTT cytotoxicity assay, HepG2; type: cell-based; conditions: Homo sapiens, read-out: IC50 against HepG2
Description: as §1, §2

[7] = tested on: C6 cells; test: DNA synthesis inhibition assay (BrdU), C6; type: cell-based, rat; conditions: lower dose (IC50/2), 48 h vs 24 h incubation
Description: The BrdU cell proliferation method was performed to analyse the effects of the active compounds on proliferation of cancer cells. Cancer cells were seeded into the 96-well plates at a density of 1 × 10^4 cells. Compounds were added into the each well at three different concentrations (IC50/2, IC50 and 2xIC50) and the plates were incubated for 24 h. At the end of the incubation period, BrdU solution was added and cells were reincubated for 2 h at 37 °C. Anti-BrdU-POD ([…]) was added and the mixture was incubated for 90 min. Microplates were washed with PBS for three times. After adding substrate solution, the mixture was incubated for 15 min. OD of the wells were determined at 492 nm. Proliferation of control cells was assessed as 100% and growth inhibition % of cells, treated with test compounds and […] were calculated.
According to the MTT assay, compound 5n for A549 cell line; compounds 5a, 5d, 5e, 5o for MCF-7 cell line; compound 5k for C6 cell line; compound 5a for HepG2 cell line; compounds 5b, 5l and 5n for HeLa cell line were selected for the DNA synthesis inhibition assay. A549, C6, MCF-7, HepG2 and HeLa cells were incubated with three different concentrations (IC50/2, IC50, and […]) of the compounds for 24 and 48 h time periods. […] Doxorubicin was used as positive control.

[8] = molecular target: T1, Topoisomerase I (Homo sapiens, UniProt P11387); test: DNA topoisomerase I assay (relaxation of supercoiled plasmid DNA, agarose gel); type: biochemical; conditions: agarose gel electrophoresis, camptothecin positive control, Figure 12
T1 construct: purchased TopoGen TG1018-2
T1 sequence (P11387 1-765): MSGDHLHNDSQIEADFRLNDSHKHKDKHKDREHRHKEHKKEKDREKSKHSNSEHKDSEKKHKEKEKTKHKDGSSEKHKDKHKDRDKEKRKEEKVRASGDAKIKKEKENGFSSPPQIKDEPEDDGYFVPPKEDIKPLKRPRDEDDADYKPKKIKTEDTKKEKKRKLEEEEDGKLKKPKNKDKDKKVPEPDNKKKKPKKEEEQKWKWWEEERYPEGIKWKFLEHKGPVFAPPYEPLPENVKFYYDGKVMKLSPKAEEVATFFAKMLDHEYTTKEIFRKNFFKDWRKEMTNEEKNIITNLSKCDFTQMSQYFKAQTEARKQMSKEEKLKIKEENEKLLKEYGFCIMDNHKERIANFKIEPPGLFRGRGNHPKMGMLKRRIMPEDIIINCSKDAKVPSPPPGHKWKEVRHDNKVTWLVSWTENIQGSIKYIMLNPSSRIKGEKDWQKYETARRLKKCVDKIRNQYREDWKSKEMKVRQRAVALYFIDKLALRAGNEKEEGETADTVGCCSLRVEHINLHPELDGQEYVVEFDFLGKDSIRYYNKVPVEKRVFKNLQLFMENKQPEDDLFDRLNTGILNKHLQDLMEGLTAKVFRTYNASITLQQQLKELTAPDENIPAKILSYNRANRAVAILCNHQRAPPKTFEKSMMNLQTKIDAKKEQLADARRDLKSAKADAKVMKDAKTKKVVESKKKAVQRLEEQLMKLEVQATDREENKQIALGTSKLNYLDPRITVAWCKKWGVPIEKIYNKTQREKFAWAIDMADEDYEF
Description: The topoisomerase I inhibition activities of final compounds were measured as relaxation of supercoiled plasmid DNA using agarose gel electrophoresis and camptothecin was used as a positive control. The assay was carried out in a final volume of 20 µl reaction volume containing 2 µl of 10xTGS Buffer, 6 µl water, 2 µl supercoiled plasmid DNA, 2 µl test compound, 2 µl of Top1, 2 ul 10% SDS, 2 µl proteinase K, 2 µl DNA loading dye. After incubation of reaction mixtures at 37 °C for 30 min, electrophoresis was done on a 1% agarose gel at a potential 50 V for 75 min using 1xTAE buffer.
To determine whether the DNA intercalation properties of compounds 5a, 5b, 5d, 5e, 5k, 5l, 5n and 5o might result in Topo I inhibition, agarose gel electrophores is assay was performed to evaluate the Topo I inhibitory activity of them via agarose-gel electrophoresis and CPT was used as the positive control. The TopoGEN Topoisomerase I Drug Screening Kit were optimised and implemented to accomplish this goal.
In a previous studies, it was said that the compounds poisoning topoisomerase caused the formation of nick bands in such gel appearances, while the formation of Supercoiled bands was said to be caused by catalytic inhibitors that bound to either DNA or enzyme[40]^,[41].

[9] = tested on: A549 (lung carcinoma cell line); test: MTT cytotoxicity assay, A549; type: cell-based; conditions: Homo sapiens, A549, MTT assay, read-out: IC50 against A549
Description: as §1, §2

Topo I inhibition activity [8]: potent topo I inhibition activity
Compound: CCOc1ccc(-c2nc3ccc(-c4nnc(SCC(=O)N5CCN(C)CC5)o4)cc3[nH]2)cc1 [5k, 2-((5-(2-(4-Ethoxyphenyl)-1H-benzo[d]imidazol-6-yl)-1,3,4-oxadiazol-2-yl)thio)-1–(4-methyl-piperazin-1-yl)-ethane-1-on]
IC50 [1]: 11.2 ± 0.467 µM
IC50 [2]: 3.2 ± 0.152 µM
IC50 [3]: 74.6 ± 3.63 µM
percentage of apoptotic cells [4]: 12.3%
IC50 [5]: 38.7 ± 1.88 µM
IC50 [6]: ≥ 100 µM
DNA synthesis inhibition at 48 h relative to 24 h [7]: eight times higher
IC50 [9]: 22.3 ± 1.05 µM
